Experiments:
in vitro = details: human, uninfected MT-4 cells, CC50 (nM), same protocol as Test A, CellTiter-Glo
How it was run: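 Cytoprotection read-out: CellTiter-Glo chemiluminescence after 5 days at 37 °C of HIV-IIIb-infected MT-4 cells (m.o.i. 0.003) with compound in 10-point 3-fold dilutions, quadruplicate, 10% FBS. Cytotoxicity (CC50) measured identically without virus.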

HIV-IIIb = test: Test A: Antiviral assay in MT4 cells; type: cell-based, HIV-1; details: Human immunodeficiency virus 1, IIIB, MT4, 120 h, read-out: % inhibition at 2 μM, percent inhibition of virus-induced cell killing, from dose response curve at 2 uM drug; MT-4 cells infected with HIV-IIIb, 5 days, CellTiter-Glo

Structure (SMILES): CC1(C)OB(c2cn(CC(=O)N[C@@H](Cc3cc(F)cc(F)c3)c3ncccc3-c3ccc(F)c(C(N)=O)c3)nc2C(F)(F)F)OC1(C)C [Example 451B, (S)-5-(2-(2-(3,5-difluorophenyl)-1-(2-(4-(4,4,5,5-tetramethyl-1,3,2-dioxaborolan-2-yl)-3-(trifluoromethyl)-1H-pyrazol-1-yl)acetamido)ethyl)pyridin-3-yl)-2-fluorobenzamide]
- CC50 at 5 days (in vitro): 37100 nM
- inhibition at 2 µM (HIV-IIIb): 1%

Structure (SMILES): NC(=O)c1cc(-c2cccnc2[C@H](Cc2cc(F)cc(F)c2)NC(=O)Cn2nc(C(F)(F)F)c3c2CS(=O)(=O)C3)ccc1F [Example 194, (S)-5-(2-(2-(3,5-difluorophenyl)-1-(2-(5,5-dioxido-3-(trifluoromethyl)-4,6-dihydro-1H-thieno[3,4-c]pyrazol-1-yl)acetamido)ethyl)pyridin-3-yl)-2-fluorobenzamide]
- CC50 at 5 days (in vitro): > 53200 nM
- inhibition at 2 µM (HIV-IIIb): 11%

Structure (SMILES): CC(C)c1cc(C(C)C)n(CC(=O)N[C@@H](Cc2cc(F)cc(F)c2)c2ncccc2-c2ccc(F)c(C(N)=O)c2)n1 [Example 538, (S)-5-(2-(2-(3,5-difluorophenyl)-1-(2-(3,5-diisopropyl-1H-pyrazol-1-yl)acetamido)ethyl)pyridin-3-yl)-2-fluorobenzamide]
- CC50 at 5 days (in vitro): 23300 nM
- inhibition at 2 µM (HIV-IIIb): 14%

Structure (SMILES): NC(=O)c1cc(-c2cccnc2[C@H](Cc2cc(F)cc(F)c2)NC(=O)Cn2nc(C(F)(F)F)c3c2CC(=O)CC3)ccc1F [Example 322, (S)-5-(2-(2-(3,5-difluorophenyl)-1-(2-(6-oxo-3-(trifluoromethyl)-4,5,6,7-tetrahydro-1H-indazol-1-yl)acetamido)ethyl)pyridin-3-yl)-2-fluorobenzamide]
- CC50 at 5 days (in vitro): 37100 nM
- inhibition at 2 µM (HIV-IIIb): 10%

Structure (SMILES): CC1Cc2c(C(F)(F)F)nn(CC(=O)N[C@@H](Cc3cc(F)cc(F)c3)c3ncccc3-c3ccc(F)c(C(N)=O)c3)c2C1 (stereo partly drawn) [Example 234, 5-(2-((1S)-2-(3,5-difluorophenyl)-1-(2-(5-methyl-3-(trifluoromethyl)-5,6-dihydrocyclopenta[c]pyrazol-1(4H)-yl)acetamido)ethyl)pyridin-3-yl)-2-fluorobenzamide]
- CC50 at 5 days (in vitro): 15900 nM
- inhibition at 2 µM (HIV-IIIb): 73%

Structure (SMILES): NC(=O)c1cc(-c2cccnc2[C@H](Cc2cc(F)cc(F)c2)NC(=O)Cn2nc(C(F)(F)F)c3cc(F)ccc32)ccc1F [Example 271B, (S)-5-(2-(2-(3,5-difluorophenyl)-1-(2-(5-fluoro-3-(trifluoromethyl)-1H-indazol-1-yl)acetamido)ethyl)pyridin-3-yl)-2-fluorobenzamide]
- CC50 at 5 days (in vitro): 11400 nM
- inhibition at 2 µM (HIV-IIIb): 15%

Structure (SMILES): O=C(Cc1c[nH]c2ccc(C(F)(F)F)cc12)N[C@@H](Cc1cc(F)cc(F)c1)c1ncccc1-c1ccc(Cl)cc1 [Example 513, (S)—N-(1-(3-(4-chlorophenyl)pyridin-2-yl)-2-(3,5-difluorophenyl)ethyl)-2-(5-(trifluoromethyl)-1H-indol-3-yl)acetamide]
- CC50 at 5 days (in vitro): 10700 nM
- inhibition at 2 µM (HIV-IIIb): 63%

Structure (SMILES): O=C(Cn1nc(C(F)F)c2c1C(F)(F)C1CC21)N[C@@H](Cc1cc(F)cc(F)c1)c1ncccc1-c1ccc(OC2CC2)cc1 (stereo partly drawn) [Example 268, N—((S)-1-(3-(4-cyclopropoxyphenyl)pyridin-2-yl)-2-(3,5-difluorophenyl)ethyl)-2-(3-(difluoromethyl)-5,5-difluoro-3b,4,4a,5-tetrahydro-1H-cyclopropa[3,4]cyclopenta[1,2-c]pyrazol-1-yl)acetamide]
- CC50 at 5 days (in vitro): 27700 nM
- inhibition at 2 µM (HIV-IIIb): 27%

Structure (SMILES): NC(=O)c1cc(-c2cccnc2[C@H](Cc2cc(F)cc(F)c2)NC(=O)Cn2nc(C(F)(F)F)c3c2C2CC2C3=O)ccc1F (stereo partly drawn) [Example 465B, 5-(2-((1S)-2-(3,5-difluorophenyl)-1-(2-(4-oxo-3-(trifluoromethyl)-4,4-a,5,5a-tetrahydro-1H-cyclopropa[4,5]cyclopenta[1,2-c]pyrazol-1-yl)acetamido)ethyl)pyridin-3-yl)-2-fluorobenzamide]
- CC50 at 5 days (in vitro): > 53200 nM
- inhibition at 2 µM (HIV-IIIb): 3%

Structure (SMILES): CC(C)(C)c1cc(C(F)(F)F)n(CC(=O)N[C@@H](Cc2cc(F)cc(F)c2)c2ncccc2-c2ccc(F)c(C(N)=O)c2)n1 [Example 238E, (S)-5-(2-(1-(2-(3-(tert-butyl)-5-(trifluoromethyl)-1H-pyrazol-1-yl)acetamido)-2-(3,5-difluorophenyl)ethyl)pyridin-3-yl)-2-fluorobenzamide]
- CC50 at 5 days (in vitro): 17000 nM
- inhibition at 2 µM (HIV-IIIb): 12%

Structure (SMILES): O=C(Cn1nc(C(F)(F)F)c2c1CCCC2)N[C@@H](Cc1cc(F)cc(F)c1)c1ncccc1-c1cccc(C(=O)NC2CC2)c1 [Example 62, (S)—N-cyclopropyl-3-(2-(2-(3,5-difluorophenyl)-1-(2-(3-(trifluoromethyl)-4,5,6,7-tetrahydro-1H-indazol-1-yl)acetamido)ethyl)pyridin-3-yl)benzamide]
- CC50 at 5 days (in vitro): 9980 nM
- inhibition at 2 µM (HIV-IIIb): 80%

Structure (SMILES): CC(C)(C)OC(=O)N1[C@@H](c2ccccc2)CC[C@H]1C(=O)N[C@@H](Cc1cc(F)cc(F)c1)c1ncccc1-c1ccc(F)c(C(N)=O)c1 [Example 139, (2S,5R)-tert-butyl 2-((S)-1-(3-(3-carbamoyl-4-fluorophenyl)pyridin-2-yl)-2-(3,5-difluorophenyl)ethylcarbamoyl)-5-phenylpyrrolidine-1-carboxylate]
- CC50 at 5 days (in vitro): 14000 nM
- inhibition at 2 µM (HIV-IIIb): 8%

Structure (SMILES): NCc1ccc2[nH]cc(CC(=O)N[C@@H](Cc3cc(F)cc(F)c3)c3ncccc3-c3cccc(C(N)=O)c3)c2c1 [Example 556, (S)-3-(2-(1-(2-(5-(aminomethyl)-1H-indol-3-yl)acetamido)-2-(3,5-difluorophenyl)ethyl)pyridin-3-yl)benzamide]
- CC50 at 5 days (in vitro): 47800 nM
- inhibition at 2 µM (HIV-IIIb): 83%

Structure (SMILES): N#Cc1cn(CC(=O)N[C@@H](Cc2cc(F)cc(F)c2)c2ncccc2-c2ccc(F)c(C(N)=O)c2)nc1C(F)(F)F [Example 363, (S)-5-(2-(1-(2-(4-cyano-3-(trifluoromethyl)-1H-pyrazol-1-yl)acetamido)-2-(3,5-difluorophenyl)ethyl)pyridin-3-yl)-2-fluorobenzamide]
- CC50 at 5 days (in vitro): 21900 nM
- inhibition at 2 µM (HIV-IIIb): 2%

Structure (SMILES): NC(=O)c1cc(-c2cccnc2[C@H](Cc2cc(F)cc(F)c2)NC(=O)Cn2nc(C(F)(F)F)cc2C2CCCC2)ccc1F [Example 168B, (S)-5-(2-(1-(2-(5-cyclopentyl-3-(trifluoromethyl)-1H-pyrazol-1-yl)acetamido)-2-(3,5-difluorophenyl)ethyl)pyridin-3-yl)-2-fluorobenzamide]
- CC50 at 5 days (in vitro): 11100 nM
- inhibition at 2 µM (HIV-IIIb): 21%

Structure (SMILES): NC(=O)c1cc(-c2cccnc2[C@H](Cc2cc(F)cc(F)c2)NC(=O)[C@@H]2CC[C@H](c3ccccc3)N2)ccc1F [Example 182, (2S,5R)—N—((S)-1-(3-(3-carbamoyl-4-fluorophenyl)pyridin-2-yl)-2-(3,5-difluorophenyl)ethyl)-5-phenylpyrrolidine-2-carboxamide]
- CC50 at 5 days (in vitro): 51000 nM
- inhibition at 2 µM (HIV-IIIb): 8%

Structure (SMILES): NC(=O)c1cc(-c2cccnc2[C@H](Cc2cc(F)cc(F)c2)NC(=O)Cn2ccc3ccc(C(F)(F)F)cc32)ccc1F [Example 591, (S)-5-(2-(2-(3,5-difluorophenyl)-1-(2-(6-(trifluoromethyl)-1H-indol-1-yl)acetamido)ethyl)pyridin-3-yl)-2-fluorobenzamide]
- CC50 at 5 days (in vitro): 14200 nM
- inhibition at 2 µM (HIV-IIIb): 15%

— patent US9540343B2 (Gilead Sciences, Inc., priority 2011, dated 2017)
